Entries after “also recorded” stand apart in the source; their conditions may differ. Like-named read-outs stand apart in the source and are kept apart here.
Tests used:
[1] = tested on: CHIR99021-induced Wnt pathway activation (FZD-independent); test: TopFlash in ΔFZD1–10 HEK293T without FZD (pcDNA), CHIR99021-stimulated
[2] = tested on: individually reexpressed FZDs (1,2,4,5,7,8, and 10); test: TopFlash in ΔFZD1–10 HEK293T, panel of individually reexpressed FZDs, Wnt3a-stimulated (collective statements)
ΔFZD1–10 HEK293T cells = conditions: for toxicity / general transcriptional inhibition by Renilla signal, in words: Renilla luciferase
[3] = tested on: Wnt signaling in TopFlash-transfected 3T3 cells; parameters: method as in PMID 26504084; conditions: read-out: potency; cited from earlier work
[4] = tested on: Wnt3a-stimulated Wnt pathway activation; test: TopFlash assay in reporter wild-type HEK293T line, Wnt3a-stimulated; type: cell-based, human; conditions: for IC50: Homo sapiens, HEK-293T, Wnt3a
HEK293T cells [5] = test: Renilla luciferase (pRL-CMV) toxicity/general transcription readout in wild-type reporter HEK293T; conditions: for IC50: Homo sapiens, HEK-293T, read-out: IC50 (Renilla)
[6] = tested on: CHIR99021-stimulated Wnt pathway activation; test: TopFlash assay in reporter wild-type HEK293T line, CHIR99021-stimulated; type: cell-based, human; conditions: for inhibition of CHIR99021-stimulated response compared with Wnt3a-stimulated, in words: wild-type reporter HEK293T, TopFlash
[7] = tested on: Wnt3a/FZD7-mediated cytoplasmic β-catenin accumulation; test: Western blot of FZD7-dependent cytoplasmic β-catenin accumulation in ΔFZD1–10 HEK293T; type: cell-based, human; conditions: 10 μM, FZD7-transfected ΔFZD1–10 HEK293T
Description: In 24-well plates, a ΔFZD1–10 HEK293T cell line was reinfected with a baculovirus expressing FZD7 or a control baculovirus at a density of 100,000 cells/well. The new medium containing the 10 μM F7H-28 derivative and the indicated Wnt activators (500 ng/mL Wnt3a or 1 μM CHIR99021) was added and incubated until the next day. The medium was then removed, and 500 μL of 1× PBS was used twice for washing. After adding 30 μL of ice-cold 1× TBS supplemented with 4 mM EDTA and 1× protease inhibitor cocktail, the cells were lysed by scraping and passed through an insulin 30G needle 10 times. The samples were centrifuged at 18,000g and 4 °C for 10 min to remove debris. Western blot was performed on 15 μL of each supernatant and developed using antibodies against α-tubulin and β-catenin.

FZD7 [8] = tested on: FZD7; parameters: method as in PMID 37669317; conditions: cited from earlier work
FZD7 [9] = molecular target: T1, FZD7 (Homo sapiens, UniProt O75084); test: TopFlash in ΔFZD1–10 HEK293T with reexpressed FZD7, Wnt3a-stimulated; conditions: FZD7 reexpression, firefly TopFlash
firefly luciferase = firefly luciferase (Photinus pyralis, UniProt P08659); test: Compound added to prestimulated TopFlash cells immediately prior to lysis and measurement; conditions: compound added directly before cell lysis
FZD7 [10] = molecular target: T1, FZD7; test: NanoLuc-substituted TopFlash reporter in ΔFZD1–10 HEK293T cotransfected with FZD7, Wnt3a
FZD7 [11] = molecular target: T1, FZD7; test: cell-based
FZD4 = molecular target: T2, FZD4 (Mus musculus, UniProt Q61088); test: TopFlash in ΔFZD1–10 HEK293T with reexpressed FZD4, Wnt3a-stimulated; conditions: ΔFZD1–10 HEK293T + FZD4, Wnt3a, up to 50 μM
T2 sequence (Q61088 37-537): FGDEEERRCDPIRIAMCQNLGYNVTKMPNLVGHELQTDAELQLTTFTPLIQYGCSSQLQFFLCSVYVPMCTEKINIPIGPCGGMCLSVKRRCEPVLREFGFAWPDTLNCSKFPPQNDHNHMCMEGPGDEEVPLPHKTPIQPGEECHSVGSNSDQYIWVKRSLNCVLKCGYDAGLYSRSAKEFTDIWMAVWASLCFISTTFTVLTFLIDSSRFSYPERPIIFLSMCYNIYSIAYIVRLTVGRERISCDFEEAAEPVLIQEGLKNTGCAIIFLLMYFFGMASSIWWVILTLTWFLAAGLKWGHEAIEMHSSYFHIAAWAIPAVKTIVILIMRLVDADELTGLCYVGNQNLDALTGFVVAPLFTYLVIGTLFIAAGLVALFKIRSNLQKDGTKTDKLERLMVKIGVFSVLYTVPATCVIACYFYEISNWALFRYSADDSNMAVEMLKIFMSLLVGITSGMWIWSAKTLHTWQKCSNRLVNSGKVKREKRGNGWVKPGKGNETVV

FZD7 [12] = tested on: FZD7; parameters: method as in PMID 29207657; conditions: claimed FZD7 inhibition; cited from earlier work
mouse FZD8 = tested on: mouse FZD8; parameters: method as in PMID 32049522; conditions: HEK293T FZD1,2,7 knockout + mouse FZD8; cited from earlier work
HEK293T cells [13] = tested on: HEK293T cells
[14] = read-out: IC50 / potency, ΔFZD1–10 HEK293T without FZD, CHIR99021

firefly luciferase, sequence (P08659 whole entry): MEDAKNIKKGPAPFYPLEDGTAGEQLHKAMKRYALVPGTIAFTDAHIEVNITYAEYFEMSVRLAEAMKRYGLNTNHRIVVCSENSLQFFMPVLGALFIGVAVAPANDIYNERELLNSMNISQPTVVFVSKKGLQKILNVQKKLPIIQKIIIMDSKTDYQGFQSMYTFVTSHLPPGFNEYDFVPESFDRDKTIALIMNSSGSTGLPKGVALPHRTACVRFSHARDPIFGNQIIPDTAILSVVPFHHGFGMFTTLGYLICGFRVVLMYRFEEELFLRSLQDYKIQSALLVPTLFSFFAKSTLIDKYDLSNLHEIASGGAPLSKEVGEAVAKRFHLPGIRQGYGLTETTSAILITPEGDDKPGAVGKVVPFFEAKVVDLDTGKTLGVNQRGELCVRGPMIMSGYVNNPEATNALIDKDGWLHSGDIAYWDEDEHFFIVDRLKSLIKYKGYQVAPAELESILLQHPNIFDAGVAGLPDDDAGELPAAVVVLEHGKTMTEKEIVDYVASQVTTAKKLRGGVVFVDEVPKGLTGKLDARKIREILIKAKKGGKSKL

SMILES: COc1ccc(C(=O)Nc2ccccc2C(=O)NC(C(=O)NNC(=O)COc2ccccc2)C(C)C)cc1 (centres unmarked) [3235-0367]
- IC50 [1, 14]: ~20 µM
- selectivity among FZDs, in words ([2]; individual FZDs including FZD8): no significant selectivity
- IC50 (ΔFZD1–10 HEK293T cells; read-out: IC50 (Renilla), Renilla luciferase signal): > 50 µM
- IC50 [3]: 7.1 µM
- IC50 ([4]; wild-type reporter HEK293T, TopFlash): ~8 µM
- IC50 (HEK293T cells [5]): > 50 µM
- inhibition of CHIR99021-stimulated response compared with Wnt3a-stimulated, in words [6]: overlapping inhibition curve

SMILES: O=C(CSc1ccc(NC(=O)c2ccc(F)cc2)cc1)Nc1nc(-c2ccccc2)cs1 [F7H-28]
- effect on cytoplasmic β-catenin signal (Western blot), in words [7]: does not reduce this signal
- IC50 (FZD7 [8]): 0.04 µM
- potency compared with CHIR99021-stimulated cells, in words (FZD7 [9]): same potency
- direct effect on firefly luciferase, in words (firefly luciferase): inhibits the firefly luciferase enzymatic activity
- effect on NanoLuc Wnt reporter, in words (FZD7 [10]): does not report significant changes
- IC50 (FZD7 [11]): > 50 µM
- IC50 (HEK293T cells [5]): > 2 µM

SMILES: CSCC[C@H](NC(=O)[C@@H](NC(=O)[C@H](Cc1c[nH]cn1)NC(=O)[C@H](CS)NC(=O)[C@H](Cc1c[nH]c2ccccc12)NC(=O)[C@H](Cc1ccccc1)NC(=O)[C@H](CCC(=O)O)NC(=O)[C@H](CC(C)C)NC(=O)[C@H](CC(=O)O)NC(=O)[C@H](CC(=O)O)NC(=O)[C@H](CO)NC(=O)[C@@H]1CCCN1C(=O)[C@@H](N)CC(C)C)C(C)C)C(=O)N[C@@H](Cc1ccc(O)cc1)C(=O)O [Fz7–21, LPSDDLEFWCHVMY]
- toxicity / general transcriptional inhibition by Renilla signal, in words (ΔFZD1–10 HEK293T cells): no unspecific toxicity

SMILES: O=C(Nc1cc(O)cc(-c2cccs2)c1)Nc1ccc2ccccc2c1 [FzM1]
- activity against Wnt signaling, in words ([2]; any of the FZDs in ΔFZD1–10 HEK293T, Wnt3a, up to 50 μM): no detectable activity; also recorded: no statistically discernible effect
- effect on FZD4-dependent Wnt3a signaling, in words (FZD4): no statistically discernible effect
- activity against Wnt signaling, in words ([4]; wild-type HEK293T, up to 50 μM): no detectable activity; also recorded: no statistically discernible effect

SMILES: O=C(/C=C/c1ccc2c(c1)OCO2)Nc1ccc(-n2cnc3ccccc32)cc1 [SRI35959]
- IC50 [1, 14]: 10 µM
- toxicity / general transcriptional inhibition by Renilla signal, in words (ΔFZD1–10 HEK293T cells): some toxicity
- IC50 (FZD7 [12]): ~3 µM
- toxicity by effect on Renilla luciferase, in words (HEK293T cells [5]; wild-type reporter HEK293T, Renilla luciferase): some toxicity
- inhibition of CHIR99021-stimulated response compared with Wnt3a-stimulated, in words [6]: slightly (but significantly) better

SMILES: NC(=O)N1c2ccccc2C=Cc2ccccc21 [carbamazepine]
- IC50 [1, 14]: ~50 µM
- toxicity / general transcriptional inhibition by Renilla signal, in words (ΔFZD1–10 HEK293T cells): some toxicity
- inhibition of CHIR99021-stimulated response compared with Wnt3a-stimulated, in words [6]: slightly (but significantly) better
- inhibition of Wnt3a-induced signal, in words (mouse FZD8): partially inhibited
- toxicity by effect on Renilla luciferase, in words (HEK293T cells [13]): some toxicity

SMILES: O=C(Nc1ccc([N+](=O)[O-])cc1Cl)c1cc(Cl)ccc1O [niclosamide]
- IC50 ([1]; CHIR99021 in cells deprived of any FZD protein): 0.1 µM
- IC50 ([2]; all individually reexpressed FZDs, Wnt3a): 0.1 µM
- IC50 ([4]; wild-type HEK293T reporter line): 0.1 µM
- IC50 ([6]; Homo sapiens, HEK-293T, wild-type HEK293T reporter line): 0.1 µM

From publication PMC11650735, “Challenging Reported Frizzled-Targeting Compounds in Selective Assays Reveals Lack of Functional Inhibition and Claimed Profiles” (ACS Pharmacology & Translational Science, 2024)
